Reference: US12697335B2, “Method for treating immune toxicities induced by immune checkpoint inhibitors” (ASSISTANCE PUBLIQUE—HÔPITAUX DE PARIS, priority 2020, dated 2026)

Legend:
[1] = human, in vivo; cited from earlier work
[2] = Adverse events on nivolumab second-line therapy for metastatic pulmonary adenocarcinoma; format: in vivo, human; settings: after 2 treatments with nivolumab (4 weeks after treatment initiation)
From the text: Myositis was suspected due to increased creatine kinase levels and confirmed by muscle biopsy. Myocarditis was confirmed with troponin increase, premature ventricular contractions and deterioration of left-ventricular ejection fraction with no signs of acute coronary syndrome on angiogram.

[3] = Eleven ICI patients with irAE treated with ruxolitinib in combination with corticosteroids and abatacept

## abatacept
[1]
  effect in patients with myotoxicity: positive effect

## nivolumab: PD-1 inhibitor: IgG4 PD1 antibody
[2]
  adverse events developed: developed myalgia, diplopia and bilateral ptosis

## N#CC[C@H](C1CCCC1)n1cc(-c2ncnc3[nH]ccc23)cn1 [Ruxolitinib, (3R)-3-Cyclopentyl-3-[4-(7H-pyrrolo[2,3-d]pyrimidin-4-yl)pyrazol-1-yl]propanenitrile]
human, in vivo
  effect on tumor progression: no effect
  tumor progression: no evidence of tumor progression
Oral ruxolitinib, summary of the case
  relief of myotoxicity: symptomatic relief
person, ruxolitinib 15 mg twice daily
  oculomotor disorders: improvement
person, ruxolitinib 15 mg twice daily, corticosteroids tapered
  troponin: prompt decrease
Ruxolitinib continued for 1 month at 15 mg twice daily
  myotoxicity outcome: complete resolution
[3]; first 3 months follow-up, 11 patients
  deaths not related to irAE (hemorrhagic choc n=1; COVID19 n=2): three
[3]; first 3 months follow-up, 11 patients, myasthenia like symptoms, hepatitis, thyroiditis
  evolution of concurrent irAE: evolved favorably
[3]; human, in vivo
  death related to an irAE: no death
